Patent publication US9833431B2, “Pharmaceutical combinations for the treatment of cancer” (Pitney Pharmaceuticals Pty Limited, priority 2013, dated 2017)
Values joined by “and” are separate entries in the source; they are usually repeats but may differ in a detail not shown here. Identical values can stand only once. “Also recorded” adds a separate entry of the source.

Legend:
[1] = tested on: IGROV-1; experiment: SRB cytotoxicity assay, IGROV-1 cells; assay type: cell-based; conditions: Homo sapiens, IGROV-1, malignant, ovarian, 72 h
Procedure: (§1) All cell lines described herein were purchased from ATCC. […] Control cultures were treated with ethanol alone.

[2] = tested on: OVCAR-3; experiment: SRB cytotoxicity / proliferation assay, OVCAR-3 cells; conditions: for significant cytotoxic effect of MPL alone: OVCAR-3 cells
Procedure: (§2) Cells were seeded in 96-well plates (2,000-3,000 cells/well) and culture overnight prior to treatment with MPL. Control cultures were treated with ethanol alone.
(§3) Cytotoxicity was assessed using the sulforhodamine B (SRB) assay and reported as half maximal inhibitory concentration (IC50; Table 3). Cells were seeded in 96-well plates (2,000-3,000 cells/well), treated with the indicated compound(s) for 72 h, fixed, washed and stained with 100 μl of 0.4% (w/v) SRB dissolved in 1% acetic acid. Unbound dye was removed by five washes with 1% acetic acid before air-drying.
(§4) In order to evaluate the effect of MPL on the in vitro efficacy of an established drug was evaluated using cell viability and cell proliferation assays. Cell viability was conducted according to standard Trypan Blue method. Cell proliferation was assessed using the sulforhodamine B (SRB) assay. For viability experiments, cells were seeded in 6 well plates, whereas for proliferation assays cells were grown in 96 well plates. Following over-night attachment, cells were treated with the intended drug at various concentrations either alone or in combination with monepantel (MPL) for 72 h. Parallel to this, cells treated with MPL alone were also deployed for comparative purposes. Following incubation for 72 h in a standard cell culture incubator, effect of mono and combined drug treatments on cell viability and/or cell proliferation was assessed through using Trypan Blue or SRB assays respectively.
For viability assay, at the end of treatment period, cells were washed with PBS, trypsinized and counted using Trypan blue and hemocytometer. For the SRB assay cells were fixed, washed and stained with 100 μl of 0.4% (w/v) SRB dissolved in 1% acetic acid. Unbound dye was removed by five washes with 1% acetic acid before air drying. […] Monepantel (gift by Novartis, Basel, Switzerland) was dissolved in 100% ethanol and then diluted with the cell culture media.
(§5) MPL (5 μM) and combination drugs were applied for 72 h unless indicated.

[3] = tested on: PET; experiment: SRB cytotoxicity assay, PET cells; assay type: cell-based, human; conditions: 72 h
Procedure: as §1

[4] = tested on: HT-29 5m11; experiment: SRB cytotoxicity assay, HT-29 5m11 cells; assay type: cell-based; conditions: Homo sapiens, read-out: LC50 (the source's name)
Procedure: as §1

[5] = tested on: HEK; experiment: SRB cytotoxicity assay, HEK cells; assay type: cell-based; conditions: Homo sapiens, HEK293, immortalised, nephritic, 72 h
Procedure: as §1

[6] = tested on: SW-872 (Liposarcoma); experiment: SRB cytotoxicity assay, SW-872 cells; assay type: cell-based; conditions: Homo sapiens, SW872
Procedure: as §1

[7] = tested on: LNCaP; experiment: SRB cytotoxicity assay, LNCaP cells; assay type: cell-based, human; conditions: 72 h
Procedure: as §1

[8] = tested on: Human Fetal Astrocytes; experiment: SRB cytotoxicity assay, human fetal astrocytes; assay type: cell-based; conditions: Astrocyte, non-malignant, glial, 72 h
Procedure: as §1

[9] = tested on: YOU; experiment: SRB cytotoxicity assay, YOU cells; assay type: cell-based, human; conditions: 72 h
Procedure: as §1

[10] = tested on: CFPAC-1; experiment: SRB cytotoxicity assay, CFPAC-1 cells
Procedure: as §2, §3, §5

[11] = tested on: 28 malignant cell lines; experiment: SRB cytotoxicity assay, summary over malignant cell lines; assay type: cell-based; conditions: all 28 malignant cell lines tested, with the exception of CFPAC-1 and SKOV-3; summary of Table 3; read-out: IC50 proliferation
Procedure: as §1

[12] = dosage of 1000 mg of MPL per kg of body weight per 24 hours; mammals; cited from earlier work
[13] = tested on: LN-18; experiment: SRB cytotoxicity assay, LN-18 cells; assay type: cell-based, human; conditions: 72 h
Procedure: as §1

[14] = tested on: REN; experiment: SRB cytotoxicity assay, REN cells; assay type: cell-based, human; conditions: 72 h
Procedure: as §1

[15] = tested on: U251; experiment: SRB cytotoxicity assay, U251 cells; assay type: cell-based; conditions: Homo sapiens, U-251, U251, malignant, glial, 72 h
Procedure: as §1

[16] = tested on: Hep3B; experiment: SRB cytotoxicity assay, Hep3B cells; assay type: cell-based, human; conditions: for cytotoxic effect of MPL alone: Hep3B cells
Procedure: as §1

[17] = tested on: AsPC1; experiment: SRB cytotoxicity assay, AsPC1 cells; assay type: cell-based, human; conditions: 72 h
Procedure: as §1

[18] = tested on: HOSE; experiment: SRB cytotoxicity assay, HOSE non-malignant control cells; conditions: for Mpl Alone, Mpl (x/X) Inhibition: 5 μM MPL, x=events, X=experiments; for cytotoxicity of MPL alone: HOSE control cells, Table 6 footnote 3
Procedure: All cell lines described herein were purchased from ATCC. Cells were seeded in 96-well plates (2,000-3,000 cells/well) and culture overnight prior to treatment with MPL. Control cultures were treated with ethanol alone.
Cells were seeded in 96-well plates (2,000-3,000 cells/well), treated with the indicated compound(s) for 72 h, fixed, washed and stained with 100 μl of 0.4% (w/v) SRB dissolved in 1% acetic acid. Unbound dye was removed by five washes with 1% acetic acid before air-drying.
Corresponding cytotoxicity of the major metabolite MPL-SO2 has also been tested where indicated. […] HUVEC, human fetal astrocytes and HOSE cells are non-transformed, non-immortalized and non-malignant, freshly isolated/low passage number cell populations, from apparently healthy non-diseased tissue. These healthy cell populations were included in the experimental series as controls for non-specific toxicity. Both MPL and MPL-SO2 were suspended in ethanol and applied in final concentrations of 0.5 to 1% ethanol in the respective culture media.
as §4
For viability assay, at the end of treatment period, cells were washed with PBS, trypsinized and counted using Trypan blue and hemocytometer. For the SRB assay cells were fixed, washed and stained with 100 μl of 0.4% (w/v) SRB dissolved in 1% acetic acid. Unbound dye was removed by five washes with 1% acetic acid before air drying. […] Monepantel (gift by Novartis, Basel, Switzerland) was dissolved in 100% ethanol and then diluted with the cell culture media. Other agents employed in the study were purchased either from Sigma Australia or Sapphire Australia, prepared and preserved for cell culture use according to supplier instructions.
as §5

[19] = tested on: SKOV-3; experiment: SRB cytotoxicity assay, SKOV-3 cells; assay type: cell-based; conditions: Homo sapiens, SK-OV-3, SKOV-3, malignant, ovarian, 72 h
Procedure: as §1

[20] = tested on: 1A9; experiment: SRB cytotoxicity assay, 1A9 cells; assay type: cell-based; conditions: Homo sapiens, 1A9, malignant, ovarian, 72 h
Procedure: as §1

[21] = tested on: HT-1080 (Fibrosarcoma); experiment: SRB cytotoxicity assay, HT-1080 cells; assay type: cell-based
Procedure: as §1

[22] = tested on: C170; experiment: SRB cytotoxicity assay, C170 cells; assay type: cell-based
Procedure: as §1

[23] = tested on: CHO; experiment: SRB cytotoxicity assay, CHO cells; assay type: cell-based; conditions: Cricetulus griseus, immortalised, ovarian, 72 h
Procedure: as §1

[24] = tested on: immortalized cell lines and the CFPAC-1 and SKOV-3 cell lines; experiment: SRB cytotoxicity assay, summary over immortalized lines; assay type: cell-based; conditions: all immortalized cell lines and CFPAC-1 and SKOV-3; summary of Table 3; read-out: IC50 proliferation
Procedure: as §1

[25] = tested on: 3T3 (fibroblast); experiment: SRB cytotoxicity assay, 3T3 cells; assay type: cell-based; conditions: immortalised, mesenchymal, 72 h
Procedure: as §1

[26] = tested on: MDA-MB-231; experiment: SRB cytotoxicity assay, MDA-MB-231 cells; assay type: cell-based; conditions: MDA-MB-231, malignant, breast
Procedure: as §1

[27] = tested on: T47-D; experiment: SRB cytotoxicity assay, T47-D cells; assay type: cell-based; conditions: Homo sapiens, T47D, malignant, breast, 72 h
Procedure: as §1

[28] = tested on: U87; experiment: SRB cytotoxicity assay, U87 cells; assay type: cell-based, human; conditions: 72 h
Procedure: as §1

[29] = in vivo; cited from earlier work
[30] = tested on: HT-29; experiment: cells; assay type: cell-based
Procedure: as §1

Q: Which results are given for `C[C@](C#N)(COc1cc(C#N)ccc1C(F)(F)F)NC(=O)c1ccc(SC(F)(F)F)cc1` [MPL, N-[(1S)-1-cyano-2-(5-cyano-2-trifluoromethyl-phenoxy)-1-methyl-ethyl]-4-trifluoromethylsulfanyl-benzamide]?
A: IC50 [1]: 4.4 ± 0.3 µM; IC50 ([2]; Homo sapiens, OVCAR-3, 72 h): 6.3 ± 0.8 µM; Mpl Alone, Mpl (x/X) Inhibition ([2]; OVCAR-3, 5 μM MPL, 72 h, x=events, X=experiments, Table 7): (3/3); Mpl Alone, Mpl (x/X) Inhibition ([2]; OVCAR-3, 5 or 10 μM MPL, 72 h, Table 8 lower panel, same MPL control for serotonin and wortmannin): (2/2)^2; Mpl Alone, Mpl (x/X) Inhibition ([2]; OVCAR-3, 5 or 10 μM MPL, 72 h, Table 8 upper panel, x=events, X=experiments): (5/5); A) Single treatment, one symbol per experiment ([2]; OVCAR-3, MPL (5 μM), 72 h): ✓✓✓✓✓✓; Mpl Alone, Mpl (x/X) Inhibition ([2]; OVCAR-3 Ovarian, 5 μM MPL, 72 h, x=events, X=experiments, Table 6): 4/4; significant cytotoxic effect of MPL alone ([2]; MPL 2.5 μM, 1/1 experiments): but not 2.5 μM alone; significant cytotoxic effect of MPL alone ([2]; MPL 5 μM, 6/6 experiments): significant cytotoxic effect; IC50 ([3]; Homo sapiens, PET, malignant, mesothelial, SRB): 26 µM; Mpl Alone, Mpl (x/X) Inhibition ([3]; PET Mesothelioma, 5 μM MPL, x=events, X=experiments): 2/2; CC50 [4]: 10.4 µM; IC50 [5]: 34.6 ± 0.9 µM; IC50 ([6]; SW-872 (Liposarcoma), malignant, mesenchymal, SRB, 72 h): 14.7 µM; EC50 ([6]; SW-872 cells): 14.7 µM; IC50 ([7]; Homo sapiens, LNCaP, malignant, prostatic, SRB): 7.3 µM; Mpl Alone, Mpl (x/X) Inhibition ([7]; LNCAP Prostate, 5 μM MPL, x=events, X=experiments): 1/1; IC50 [8]: 85.6 ± 2.7 µM; IC50 ([9]; Homo sapiens, YOU, malignant, mesothelial, SRB): 23 µM; Mpl Alone, Mpl (x/X) Inhibition ([9]; YOU Mesothelioma, 5 μM MPL, x=events, X=experiments): 2/2; Mpl Alone, Mpl (x/X) Inhibition ([10]; CFPAC-1 Pancreatoma, 5 μM MPL, 72 h, x=events, X=experiments): 1/10; experiments with significant cytotoxic effect of MPL alone ([10]; CFPAC-1 cells, MPL (5 μM)): 1 of 10; experiments with cytotoxic effect of MPL alone ([10]; CFPAC-1 cells, MPL (10 μM), 72 h, data not shown): 4 of 9; IC50 ([10]; Homo sapiens, CFPAC-1, 72 h): 30.1 ± 5.5 µM; IC50 [11]: 2 to 25 µM; clinical tolerance [12]: well tolerated; IC50 ([13]; Homo sapiens, LN-18, malignant, glial, SRB): 9.4 ± 0.8 µM; Mpl Alone, Mpl (x/X) Inhibition ([13]; LN18 Glioblastoma, 5 μM MPL, x=number of events, X=number of experiments): 2/2; IC50 ([14]; Homo sapiens, REN, malignant, mesothelial, SRB): 2.5 ± 0.2 µM; Mpl Alone, Mpl (x/X) Inhibition ([14]; REN Mesothelioma, 5 μM MPL, x=events, X=experiments): 2/2; IC50 [15]: 17 ± 1.2 µM; Mpl Alone, Mpl (x/X) Inhibition ([16]; Hep3B Hepatoma, 5 μM MPL, 48 h, x=events, X=experiments): 12/12; cytotoxic effect of MPL alone ([16]; MPL 2.5 μM, 48 h): does not display a cytotoxic effect; also recorded: does not exert a cytotoxic effect; cytotoxic effect of MPL alone ([16]; MPL 5 μM, 48 h): significant cytotoxic effect and potent effect and 12 of 12; IC50 ([16]; Homo sapiens, Hep3B, malignant, hepatic, SRB, 72 h): 15.8 µM; Mpl Alone, Mpl (x/X) Inhibition ([17]; AsPC-1 Pancreatoma, 5 μM MPL, x=events, X=experiments): 1/2; IC50 ([17]; Homo sapiens, AsPC1, malignant, pancreatic, SRB): 7.2 ± 0.3 µM; Mpl Alone, Mpl (x/X) Inhibition ([18]; HOSE (Ovarian) control, Table 6): 2/9^3; Mpl Alone, Mpl (x/X) Inhibition ([18]; HOSE (Ovarian), 72 h, Table 7): (0/4); cytotoxic effect of MPL alone ([18]; HOSE cells, FIG. 22 Rows 2 (fluorouracil) and 5 (paclitaxel)): small but significant cytotoxic effect; significant cytotoxic effect of MPL alone ([18]; HOSE cells, MPL 2.5 μM, 1/1 experiments): did not induce a significant cytotoxic effect; significant cytotoxic effect of MPL alone ([18]; HOSE cells, MPL 5 μM, 3/3 experiments): did not induce a significant cytotoxic effect; cytotoxicity of MPL alone ([18]; flutamide experiment): 3%; cytotoxicity of MPL alone ([18]; oxaliplatin experiment): 5%; IC50 ([18]; Homo sapiens, 72 h): > 100 µM; IC50 [19]: 31.2 ± 0.8 µM; IC50 [20]: 2.5 ± 0.5 µM; Mpl Alone, Mpl (x/X) Inhibition ([21]; HT180 Fibrosarcoma, 5 or 10 μM MPL, 72 h, x=events, X=experiments): (1/1); IC50 ([21]; Homo sapiens, HT-1080 (Fibrosarcoma), malignant, mesenchymal, SRB, 72 h): 17.2 µM; EC50 ([21]; Homo sapiens, HT-1080 cells): 17.2 µM; significant cytotoxic effect of MPL alone ([22]; C170 cells, MPL (5 μM)): one of two experiments; IC50 ([22]; Homo sapiens, C170, malignant, colorectal, SRB, 72 h): ~20 µM; IC50 [23]: 34.6 ± 0.8 µM; IC50 [24]: 12 to 35 µM; IC50 [25]: 12.4 ± 0.4 µM; IC50 ([26]; Homo sapiens, MDA-MB-231, 72 h): 23.8 µM; IC50 ([26]; 72 h): 25.8 ± 0.2 µM; IC50 [27]: 5.3 µM; IC50 ([28]; Homo sapiens, U-87 MG, U87, malignant, glial, SRB): 18 ± 7.1 µM; Mpl Alone, Mpl (x/X) Inhibition ([28]; U87 Glioblastoma, 5 μM MPL, x=events, X=experiments): 1/1; single-dose toxicity [29]: > 2000 mg per kg of body weight; significant cytotoxic effect of MPL alone ([30]; HT29 cells, MPL (5 μM), two experiments): no significant cytotoxic effect; CC50 ([30]; Homo sapiens, HT-29, HT29 cells, read-out: LC50 (the source's name)): 5.9 µM; IC50 ([30]; Homo sapiens, HT-29, malignant, colorectal, SRB, 72 h): 5.9 ± 0.2 µM
